These are literature values, as cited in PubChem BioAssay AID1259410 (Chemical Carcinogenesis Research Information System (CCRIS), 2018).

Molecules are shown by their SMILES.

For this data set, the system named is rodent tumor promotion studies, tumor incidence. Description: CCRIS tumor promotion studies.

Turning to `C[C@]12CC[C@@H]3c4ccc(O)cc4CC[C@H]3[C@@H]1CC[C@@H]2O`, the outcome by setting is: (Carcinogen: N-ETHYL-N-NITROSOUREA, 759-73-9, Doses [Carcinogen]: 12.5 MG/KG IN POLYETHYLENE GLYCOL ONCE, Doses [Promoter]: 0, 0.32 MG/PELLET IMPLANTED IN PERSISTENT ESTRUS MICE 1 WK PRIOR TO CARCINOGEN DOSE (STUDY DURATION: 16 WK), Route [Carcinogen]: INTRAUTERINE, Route [Promoter]: SUBCUTANEOUS, Species: MOUSE, Strain/Sex: CD-1/FEMALE) “uterus: adenocarcinoma”; (Carcinogen: N-ETHYL-N-NITROSOUREA, 759-73-9, Doses [Carcinogen]: 50 MG/KG BW IN POLYETHYLENE GLYCOL ONCE AT 10 WK OF AGE, Doses [Promoter]: 0, 0.5% IN CHOLESTEROL PELLET AT 9 WK OF AGE, REMOVED AFTER 8 WK (STUDY DURATION: 15 WK), Route [Carcinogen]: INTRAUTERINE, Route [Promoter]: SUBCUTANEOUS IMPLANT, Species: MOUSE, Strain/Sex: CD-1/FEMALE) “uterus: tumor”; (Carcinogen: N-ETHYL-N-NITROSOUREA, 759-73-9, Doses [Carcinogen]: 50 MG/KG BW IN POLYETHYLENE GLYCOL ONCE AT 10 WK OF AGE, Doses [Promoter]: 0, 0.5% IN CHOLESTEROL PELLET AT 11 WK OF AGE, REMOVED AFTER 8 WK (STUDY DURATION: 15 WK), Route [Carcinogen]: INTRAUTERINE, Route [Promoter]: SUBCUTANEOUS IMPLANT, Species: MOUSE, Strain/Sex: CD-1/FEMALE) “uterus: tumor”; (Carcinogen: N-ETHYL-N-NITROSOUREA, 759-73-9, Doses [Carcinogen]: 50 MG/KG BW IN POLYETHYLENE GLYCOL ONCE AT 10 WK OF AGE, Doses [Promoter]: 0, 0.5% IN CHOLESTEROL PELLET AT 14 WK OF AGE, REMOVED AFTER 8 WK (STUDY DURATION: 15 WK), Route [Carcinogen]: INTRAUTERINE, Route [Promoter]: SUBCUTANEOUS IMPLANT, Species: MOUSE, Strain/Sex: CD-1/FEMALE) “uterus: tumor”; (Carcinogen: N-ETHYL-N-NITROSOUREA, 759-73-9, Doses [Carcinogen]: 50 MG/KG BW IN POLYETHYLENE GLYCOL ONCE AT 10 WK OF AGE, Doses [Promoter]: 0, 0.5% IN CHOLESTEROL PELLET AT 17 WK OF AGE, REMOVED AFTER 8 WK (STUDY DURATION: 15 WK), Route [Carcinogen]: INTRAUTERINE, Route [Promoter]: SUBCUTANEOUS IMPLANT, Species: MOUSE, Strain/Sex: CD-1/FEMALE) “uterus: tumor”; (Carcinogen: N-METHYL-N'-NITRO-N-NITROSOGUANIDINE, 70-25-7, Doses [Carcinogen]: 50 PPM FOR 60 MIN, Doses [Promoter]: 0, 20 PPM IN DIET BEGINNING 14 WK POST CARCINOGEN DOSE (STUDY DURATION: 12 MO), Route [Carcinogen]: IMMERSION, Route [Promoter]: ORAL, Species: FISH, Strain/Sex: RAINBOW TROUT) “liver: tumor”. In addition, the outcome was “uterus: adenocarcinoma” (Carcinogen: N-METHYL-N-NITROSOUREA, 684-93-5, Doses [Carcinogen]: 1 MG/100 G BW INJECTED INTO LEFT UTERINE TUBE ONCE, Doses [Promoter]: 0, 25 PPM IN DIET FOR 29 WK BEGINNING 1 WK POST CARCINOGEN DOSE (STUDY DURATION: 30 WK), Route [Carcinogen]: INJECTION, Route [Promoter]: ORAL, Species: MOUSE, Strain/Sex: ICR/FEMALE); “thyroid: adenoma, carcinoma” (Carcinogen: N-METHYL-N-NITROSOUREA, 684-93-5, Doses [Carcinogen]: 40 MG/KG ONCE AT 50 D OF AGE, Doses [Promoter]: 0, 2.5 MG PELLET IMPLANTED ON BACK OF GONADECTOMIZED RATS MAINTAINED ON LOW- IODINE DIET (STUDY DURATION: 30 WK), Route [Carcinogen]: INTRAVENOUS, Route [Promoter]: SUBCUTANEOUS IMPLANT, Species: RAT, Strain/Sex: LONG-EVANS/FEMALE); “thyroid: adenoma, carcinoma” (Carcinogen: N-METHYL-N-NITROSOUREA, 684-93-5, Doses [Carcinogen]: 40 MG/KG ONCE AT 50 D OF AGE, Doses [Promoter]: 0, 2.5 MG PELLET IMPLANTED ON BACK OF GONADECTOMIZED RATS MAINTAINED ON LOW- IODINE DIET (STUDY DURATION: 30 WK), Route [Carcinogen]: INTRAVENOUS, Route [Promoter]: SUBCUTANEOUS IMPLANT, Species: RAT, Strain/Sex: LONG-EVANS/MALE); “liver: hepatocellular carcinoma or mixed carcinoma or hepatocellular adenoma” (Doses [Carcinogen]: 0, 125 PPM IN STATIC SOLUTIONS OF WATER FOR 30 MIN ADMINISTERED TO 21 DAY OLD EMBRYOS, Doses [Promoter]: 0, 20 PPM BEGINNING 6 WK POST CARCINOGEN TREATMENT AND CONTINUING FOR 5 WK FOLLOWED BY CONTROL DIET FOR 1 WK THEN 0, 10, Doses [Promoter]: 0, 20 PPM BEGINNING 6 WK POST CARCINOGEN TREATMENT AND CONTINUING FOR 5 WK FOLLOWED BY CONTROL DIET FOR 1 WK THEN 0, 10, Route [Carcinogen]: IMMERSION, Route [Promoter]: ORAL, Species: FISH, Strain/Sex: MT. SHASTA RAINBOW TROUT); “liver: hepatocellular carcinoma or mixed carcinoma” (Doses [Carcinogen]: 0.025 PPM IN STATIC SOLUTIONS OF WATER FOR 30 MIN ADMINISTERED TO 21 DAY OLD EMBRYOS, Doses [Promoter]: 0, 20 PPM BEGINNING 6 WK POST CARCINOGEN TREATMENT AND CONTINUING FOR 5 WK FOLLOWED BY CONTROL DIET FOR 1 WK THEN 0, 10, Doses [Promoter]: 0, 20 PPM BEGINNING 6 WK POST CARCINOGEN TREATMENT AND CONTINUING FOR 5 WK FOLLOWED BY CONTROL DIET FOR 1 WK THEN 0, 10, Route [Carcinogen]: IMMERSION, Route [Promoter]: ORAL, Species: FISH, Strain/Sex: MT. SHASTA RAINBOW TROUT); “liver: hepatocellular carcinoma or mixed carcinoma” (Doses [Carcinogen]: 0.25 PPM IN STATIC SOLUTIONS OF WATER FOR 30 MIN, Doses [Promoter]: 0, 5 PPM IN DIET BEGINNING 5 WK POST CARCINOGEN TREATMENT AND ALTERNATED EVERY OTHER WK WITH CONTROL DIET FOR DURATION O, Route [Carcinogen]: IMMERSION, Route [Promoter]: ORAL, Species: FISH, Strain/Sex: MT. SHASTA RAINBOW TROUT). Further, the outcome (Doses [Carcinogen]: 0.5 PPM FOR 30 MIN, Doses [Promoter]: 0, 20 PPM IN DIET BEGINNING 14 WK POST CARCINOGEN DOSE (STUDY DURATION: 12 MO), Route [Carcinogen]: IMMERSION, Route [Promoter]: ORAL, Species: FISH, Strain/Sex: RAINBOW TROUT) is “liver: tumor”.
For the compound `Nc1nc2ncc(CNc3ccc(C(=O)N[C@@H](CCC(=O)O)C(=O)O)cc3)nc2c(=O)[nH]1`, the outcome (Carcinogen: N-ETHYL-N-(2-HYDROXYETHYL)NITROSAMINE, Doses [Carcinogen]: 0.1% IN DRINKING WATER FOR 1 WK, Doses [Promoter]: 300 MG/KG 1/WK FOR 8 WK THEN 100 MG/KG 1/WK FOR 27 WK, Route [Carcinogen]: ORAL, Route [Promoter]: SUBCUTANEOUS, Species: RAT, Strain/Sex: F344/MALE) is on record as “kidney: renal cell tumor”.
